Here are results for 2 compounds from publication PMC6278366, “Synthesis and Evaluation of Anticancer Activities of Novel C-28 Guanidine-Functionalized Triterpene Acid Derivatives” (Molecules, 2018).

Molecules are shown by their SMILES. Where a name gives a salt, the structure may show the parent alone.

One test concerns Jurkat cells. The experiment in a line: Cell cycle analysis (propidium iodide staining, flow cytometry). Format: cell-based, human. To be noted: 48 h, at IC50 concentration (59 μM Dihydro BA; 4 μM 15, 15c, 18c; 8 μM 20c); for cells in G2/M phase: control 14.5%. As for the experimental part:
Cell cycle was analyzed using the method of propidium iodide staining. Briefly, cells were plated in 24-well round bottom plates at density 10 × 10^5 cells per well, centrifuged at 450× g for 5 min, and fixed with ice-cold 70% ethanol for 24 h at 0 °C. Cells were then washed with PBS and incubated with 250 μL of Guava Cell Cycle Reagent (Millipore, Burlington, MA, USA) for 30 min at room temperature in the dark. Samples were analyzed on NovoCyte^TM 2000 FlowCytometry System (ACEA, San Diego, CA, USA).
Figure 3 Cell cycle analysis in Jurkat cells. […] The cells were trypsinized, harvested and washed three times with ice-PBS for PI-stained DNA content detected by flow cytometry. The experiments were performed three times, and the results of the representative experiments are shown. The first cytogram represents an untreated cell sample (A); after incubation with dihydrobetulinic acid for 48 h (B); after incubation with compound 15 for 24 h (C) and for 48 h (D); after incubation with compound 15c for 24 h (E) and for 48 h (F); after incubation with compound 18c for 24 h (G) and for 48 h (H); after incubation with compound 20c for 24 h (I) and for 48 h (J). […]
(In general: In flow cytometry, cells or beads pass a laser one at a time.)

In test [1] the test system is HEK293 (embryonic kidney) cells. The experiment in a line: Cytotoxicity assay (7-AAD viability, flow cytometry), HEK293. Format: cell-based, human. To be noted: Homo sapiens, HEK293, mean ± SE, at least three experiments in duplicate; viable cells. In a few lines: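 Adherent HeLa, HEK293 and normal human fibroblasts (5 × 10⁴/well, DMEM with 10% FBS, 37 °C, 5% CO2) were treated with compounds at 1, 5, 10, 15, 30 and 60 μM. Viability was read as 7-AAD exclusion by flow cytometry after 15 min staining.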

Take `CC(=O)O[C@H]1CC[C@@]2(C)C(CC[C@]3(C)C2CCC2C4C(C(C)C)CC[C@]4(C(=O)OCC(CO)(CO)NC(=N)N)CC[C@]23C)C1(C)C` (stereo partly drawn) [Compound 15c, 3β-[2-Guanidine-3-hydroxy-2-(hydroxymethyl)propyl]-3-O-acetyl-lupane-28-oate hydrochloride]: the “cells in G2/M phase” value in the test with Jurkat cells was 1.5%. The compound further gave an IC50 in test [1] of 16 ± 0.27 µM.

With `CC(=O)O[C@H]1CC[C@@]2(C)C(CC[C@]3(C)C2CCC2C4C(C(C)C)CC[C@]4(C(=O)OCC(N)(CO)CO)CC[C@]23C)C1(C)C` (stereo partly drawn) [Compound 15, 3β-[2-Amino-3-hydroxy-2-(hydroxymethyl)propyl]-3-O-acetyl-lupane-28-oate], the “cells in G2/M phase” value with Jurkat cells came out at 7.0%. For the same compound, in the test with Jurkat cells (control 38.3%), the “cells in S phase” value is recorded as 72.7%. Half-maximal inhibition in test [1] (IC50) was put at 17 ± 0.25 µM.

The term IC50 denotes the concentration at which inhibition is half-maximal. The low end stands for greater potency in that assay, the high end for weaker potency in that assay.
